Results on four molecules are retold here after patent US8486464B2, “Herbal composition for angina pectoris, method to prepare same and uses thereof” (Tasly Pharmaceutical Group Co. Ltd., priority 2000, dated 2013).

Like-named read-outs stand apart in the source and are kept apart here.

For data set [1], the system named is coronary heart disease and angina. Put plainly: Clinical summary: coronary heart disease and angina (Table 1-1). It counts as in vivo, human. Conditions: Affiliated Hospital Anhui College of TCM, 46 cases. How it is done:
After DSP came onto the market in China, a large-scale clinical research project was conducted in China. Although different prescriptions were used in different research projects, all conclusions are written according to “Method of DSP clinic study.” All clinical and experimental markers were standardized. A simplified summary of the results is shown below in Table 1-1.

The test system of data set [2] is angina caused by coronary heart disease. Put plainly: Senior group angina, DSP vs Nifedipine. As to the method:
• 1.1 Subjects. […] Medications were taken for 30 days. Patients in both groups used Yongbaoling spray under their tongues during acute onset of symptoms. […] Onset frequency, duration, number of times Yongbaoling was sprayed each day, 12-lead ECG, blood pressure, heartbeat, normal blood urea, liver and kidneys function, and lipoproteins in blood and blood viscosity both before and after treatment. • 1.4 Statistical analysis. The results were measured by t statistic testing, calculated by x^2 statistic testing. • 2. Confirmation of results. Onset frequency and duration with a decrease of 80% or more was regarded as obvious efficacy. A decrease of 50% or more was regarded as efficacy. A decrease of 50% or less was regarded as a failure. Changes in NST and ΣST before and after treatment were used to observe ECG improvement. NST represented the low-pressure 12-lead numbers in section ST; ΣST represented the sum of all low pressure numbers in section ST of 12-lead. Results

Another data set deals with non-symptomatic M-IR. In words: Non-symptomatic M-IR, DSP vs Nifedipine. Type of data set: in vivo, human. Conditions: for Efficacy (Number) / Obvious Efficacy (Number): n = 52. The source says: 1. Clinical sample. 52 patients were in the treatment group, which included 39 patients with coronary heart disease, and 4 patients with M-IR, and 9 patients with positive results on the exercise test. There were 38 males and 14 females. 52 patients were in the control group, which included 43 patients with coronary heart disease, 6 patients with M-IR, and 3 patients with positive results on the exercise test. There were 34 males and 18 females (Both groups followed the WHO M-IR-Related Heart Disease and Standard established in 1979).
2. Method of treatment. DSP was given to the treatment group, 10 tablets/medication, 3 times/day. […] Both medications lasted for 4 weeks, and all medications related to the treatment of M-IR were stopped.
3. Result standard. Efficient: Change of ECG ST-T was close to normal; Better: Decreased section ST rose 0.5 mm or more, transverse wave T changed to vertical ones, inverted wave changed 25% or more, conducting resistance was improved; Failure: There was no difference in ECGs before and after treatment.

The next data set relates to blood stasis. In words: Blood flow (Hb, Lb, P, air flow), DSP vs aspirin. It counts as in vivo, human. Details: unit not given here. The source says:
Hemorrhage at the atherosclerotic lesions induces platelet activation, coronary thrombosis and blood stasis resulting in impaired blood flow. Thus to improve blood flow, chronic administration of the platelet-activation inhibitor aspirin is recommended for patients with angina. The efficacy of DSP and aspirin improving blood flow was compared by evaluating [Hb, Lb, P and air flow]. DSP improves blood flow as efficiently as aspirin. […].

The subject of another data set is thrombosis. Put plainly: Experimental thrombosis in rats (Umetsu method). The conditions noted are these: experimental thrombo-formation. It counts as in vivo. The source says: • 3. Effects on experimental thrombosis in rats. The Umetsu method is used to carry out the experiment.
The test system of the next data set is arterial IMT. Put plainly: Hyperlipidemia, DSP vs aspirin: arterial IMT. Type of data set: in vivo, human. As to the method:
(§1) 1.1 Sample. 53 patients were divided into 2 groups, at random: 25 patients in Treatment group (DSP group), and 28 patients in Control group (aspirin group).
(§2) The medication lasted for 6 months. 50 mg enteric aspirin was given to the Control group, 1 time/day orally.
(§3) 1.3 Standard. a) Measurement of IMT (Arterial tunica intima-tunica media). The horizontal and vertical transactions of the whole-length aorta, carotis communis, exterior artery, and subclavial artery were checked 1, 2, 3, and 6 months after treatment. The thickest part of the IMT was measured and recorded. b) Blood flow included whole blood high-viscosity (hHb), whole blood low-viscosity (hLb), plasma viscosity (hP), Aggregation Index of Red blood cells (AIR) etc. c) Measurement of blood lipoprotein included Total blood Cholesterol (TC) and Triglycerides (TG). D) Statistical treatment by matching t statistic testing.

The next data set deals with blood viscosity. Put plainly: Hyperlipidemia, DSP vs aspirin: blood flow. Type of data set: in vivo, human. How it is done:
as §1, §2, §3

The next data set concerns cardiac arrhythmia. Put plainly: Cardiac arrhythmia caused by exogenous free radicals, Langendorff rat heart. Details: species or system Wistar rat. The conditions noted are these: 1 mg/L verapamil; 50 mg/L DSP; free radicals alone 100%. How it is done:
Langendorff perfusion device was used to pour ferrous sulfate (0.25 mmol/L)/citrate (1.0 mmol/L) into the Wistar rat's artificial heart. The model of free radicals causing heart rhythm irregularity was replicated to observe the effects of DSP.
(1) Blank group (Normal control). Reperfused with perfusion solution for 45 mins continuously. The change in electrocardiographic pattern was observed.
(2) SP group. DSP was added in 50 mg/L of perfusion solution and perfused for 45 mins continuously. The change in electrocardiographic pattern was observed.
(3) Free-radical-damaging group (Free radicals). After pre-perfusing the artificial heart for 15 mins, it was reperfused with perfusion solution containing ferrous sulfate (0.25 mmol/L)/citrate (1.0 mmol/L) for 30 mins continuously. The change in electrocardiographic pattern was observed.
(4) DSP-protected group (DSP+free radicals): DSP was added into 50 mg/L of perfusion solution and pre-perfused for 15 mins. Ferrous sulfate (0.25 mmol/L/citrate (1.0 mmol/L) was added to the perfusion solution and then infuse for 30 mins continuously. The change in electrocardiographic pattern was observed.
(5) Verapamil-protected group (verapamil+free radicals). […] of verapamil was added to the perfusion solution and preperfused for 15 mins. […]

The mark [3] stands for this setting: clinical results after 30 days, cases (%).

Excerpt for insulin: (§4) Method. The 80 patients were divided into 2 groups: the Control group, with normal treatment, and the DSP group, with 10 DSP tablets, 3 times/day. Testing lasted 4 weeks.
Excerpt for plasma ET: as §4

In the case of `CCOC(=O)C1=C(COCCN)NC(C)=C(C(=O)OC)C1c1ccccc1Cl` (stereo not drawn) [Amlodipine], the “Plasma ET” value with plasma ET (after treatment (4 weeks)) was determined as 42.6 ± 4.78 ng/L; with plasma ET (before treatment), 57.2 ± 7.31 ng/L. Besides, the Blood glucose in the data set on insulin (60 min, after treatment) amounted to 9.76 ± 0.52 mmol; in the data set on insulin (60 min, before treatment) it was 9.86 ± 0.65 mmol; in the data set with insulin (120 min, after treatment), 8.01 ± 0.76 mmol; with insulin (120 min, before treatment) it was 7.69 ± 0.81 mmol; with insulin (Empty, after treatment) it was 5.27 ± 0.59 mmol; in the data set on insulin (Empty, before treatment) it was 5.19 ± 0.56 mmol. In addition, the Blood insulin was found to be 121.65 ± 1.89 mU/L in the data set on insulin (60 min, after treatment); 122.01 ± 1.91 mU/L with insulin (60 min, before treatment); 92.56 ± 1.66 mU/L in the data set on insulin (120 min, after treatment); 91.62 ± 1.96 mU/L in the data set on insulin (120 min, before treatment); 25.31 ± 1.73 mU/L in the data set on insulin (Empty, after treatment); 25.34 ± 1.74 mU/L with insulin (Empty, before treatment).

Take `COC(=O)C1=C(C)NC(C)=C(C(=O)OC)C1c1ccccc1[N+](=O)[O-]` [Nifedipine]: in data set [1], the Clinical efficacy % result is on record as “Nifedipine(32; 75%;” and the ECG-Efficacy % stood at 43.8%). In [2] (20 patients, 30 days), the “Side-effects: felt pain” value is 3 patients, the “Side-effects: slow heartbeat” value is recorded as 1 patients and the “Side-effects: swollen ankles” value was 2 patients. In [2] (after treatment), the NST turned out to be 3.90 ± 1.13 and the “Number of Yongbaoling sprays per day” value stood at 2.2 ± 0.8. For the same molecule, in [2] (before treatment), the NST is recorded as 4.20 ± 1.25 and the “Number of Yongbaoling sprays per day” value came to 3.21 ± 1.1. Also, the “Total efficacy, %” value in data set [2] (clinical results after 30 days) is recorded as 60%. In data set [2] (setting [3]), the Efficacy is on record as 4 (20.00) %, the Failure is recorded as 8 (40.00) % and the “Obvious Efficacy” value was 8 (40.00) %. In addition, in the data set with non-symptomatic M-IR (1st week), the “Efficacy (%)” value stood at 25.0%, the “Efficacy (Number)” value came out at 5 and the “Obvious Efficacy (Number)” value was found to be 8. In the data set with non-symptomatic M-IR (2nd week), the “Efficacy (%)” value is given as 30.8%, the “Efficacy (Number)” value was 6 and the “Obvious Efficacy (Number)” value worked out at 10. For the same molecule, in the data set on non-symptomatic M-IR (3rd week), the “Efficacy (%)” value is listed as 34.6%, the “Efficacy (Number)” value came to 7 and the “Obvious Efficacy (Number)” value is reported as 11. In addition, in the data set with non-symptomatic M-IR (4th week), the “Efficacy (%)” value stood at 38.5%, the “Efficacy (Number)” value is 8 and the “Obvious Efficacy (Number)” value came out at 12.

In the data set with blood stasis (Post-), `CC(=O)Oc1ccccc1C(=O)O` [aspirin] displayed an Air flow of 1.40 ± 0.10, a Hb of 4.28 ± 1.07, an LB of 8.21 ± 0.3 and a P of 1.67 ± 0.7. In the data set on blood stasis (Pre-), this molecule displayed an Air flow of 1.82 ± 0.17, an LB of 10.38 ± 1.96 and a P of 1.89 ± 0.12. In the data set on blood stasis (Pre-, 25 patients DSP, 28 aspirin), this molecule showed a Hb of 6.12 ± 1.56. In the data set with thrombosis (Aspirin 30, DSP 50), this molecule returned an Average aggregation percentage of 10.6 ± 2.1. Also, the Inhibition % in the data set with thrombosis (Aspirin 30, DSP 50 (head: g/kg)) amounted to 49.2%. Moreover, in the data set with arterial IMT (after treatment (6 months)), the IMT stood at 2.1 ± 0.7 mm. For the same molecule, in the data set on arterial IMT (before treatment), the IMT worked out at 2.0 ± 0.8 mm. Also, in the data set on blood viscosity (after treatment (6 months)), the AIR turned out to be 1.40 ± 0.10, the “η Hb” value was 4.28 ± 1.07 mpa · s, the “η Lb” value is given as 8.21 ± 1.03 mpa · s and the “η P” value was 1.67 ± 0.07 mpa · s. Further, in the data set on blood viscosity (before treatment), the AIR is 1.82 ± 0.17, the “η Hb” value was determined as 6.12 ± 1.56 mpa · s, the “η Lb” value stood at 10.38 ± 1.96 mpa · s and the “η P” value is recorded as 1.89 ± 0.12 mpa · s.

Consider `COc1ccc(CCN(C)CCCC(C#N)(c2ccc(OC)c(OC)c2)C(C)C)cc1OC` (stereo not drawn) [verapamil], for which the “cardiac arrhythmia (irregularity) percentage” value in the data set with cardiac arrhythmia turned out to be 71.4%.
